Assay results taken from patent US20130012493A1, “NOVEL SPIRO IMIDAZOLONE DERIVATIVES AS GLUCAGON RECEPTOR ANTAGONISTS, COMPOSITIONS, AND METHODS FOR THEIR USE” (priority 2010, published 2013).

Biological target: T1, recombinant human glucagon receptor (Homo sapiens, UniProt P47871)
T1 construct: expressed in transfected cells; host or cells: CHO (Chinese hamster ovary) cells
Experiment: Inhibition of glucagon-stimulated intracellular cAMP assay
Assay type: cell-based
Details: CHO cells expressing recombinant human glucagon receptor, stimulated with 300 pM glucagon
Method: Inhibition of Glucagon-Stimulated Intracellular cAMP Assay
Chinese hamster ovary (CHO) cells expressing the recombinant human glucagon receptor were harvested with the aid of non-enzymatic cell dissociation solution (GIBCO 13151-014). The cells were then pelleted and suspended in the stimulation buffer (1×HBSS, 5 mM Hepes, 0.1% BSA, pH7.4 in presence of complete protease inhibitor and phosphodiesterase inhibitor). The adenylate cyclase assay was conducted following the LANCE cAMP Kit (Perkin Elmer, AD0262) instructions. Briefly, cells were preincubated with anti-cAMP antibody in the stimulation buffer with a final concentration of 3% DMSO for 30 minutes and then stimulated with 300 pM glucagon for 45 minutes. The reaction was stopped by incubating with the detection buffer containing Europium chelate of the Eu-SA/Biotin-cAMP tracer for 20 hours. The fluorescence intensity emitted from the assay was measured at 665 nm using PheraStar instruments. […] Standard cAMP concentrations were conducted concurrently for conversion of fluorescence signal to cAMP level. Data was analyzed using GraphPad Prism. IC50 values were calculated using non-linear regression analysis assuming single site competition. […] Some of the compounds of the invention shown in the examples measured less than about 5 μM in this assay; other examples measured less than about 500 nM; others less than about 100 nM.

T1 sequence (P47871 26-477): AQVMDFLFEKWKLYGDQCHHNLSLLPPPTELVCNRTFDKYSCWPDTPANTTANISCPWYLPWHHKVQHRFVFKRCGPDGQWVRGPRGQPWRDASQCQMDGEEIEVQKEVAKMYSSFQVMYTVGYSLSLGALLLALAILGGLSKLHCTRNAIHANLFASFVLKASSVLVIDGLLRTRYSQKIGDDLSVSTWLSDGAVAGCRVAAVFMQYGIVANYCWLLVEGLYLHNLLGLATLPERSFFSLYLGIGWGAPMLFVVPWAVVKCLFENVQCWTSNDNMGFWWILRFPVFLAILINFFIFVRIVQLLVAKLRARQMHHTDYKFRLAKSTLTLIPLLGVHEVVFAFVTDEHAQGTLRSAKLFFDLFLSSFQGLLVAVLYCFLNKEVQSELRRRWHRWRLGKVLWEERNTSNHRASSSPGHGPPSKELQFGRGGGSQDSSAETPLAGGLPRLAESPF

| IC50 [nM] | SMILES |
| --- | --- |
| 209 | CC[C@H](c1ccc(C(=O)NCCC(=O)O)cc1)N1C(=O)C(N2CCCCC2)=NC12CCC(C(C)(C)C)CC2 (some centres unmarked) [Example 10.4] |
| 290 | CC(C)(C)CC[C@H](c1ccc(C(=O)NCc2nn[nH]n2)cc1)N1C(=O)C(C2CCCCC2)=NC12CCC(C(C)(C)C)CC2 (some centres unmarked) [Example 9.99] |
